Laboratory results reported in publication PMC3384000, “TCN 201 selectively blocks GluN2A-containing NMDARs in a GluN1 co-agonist dependent but non-competitive manner” (Neuropharmacology, 2012).
Read-outs that look alike come from different tables or passages of the source.

How the values were obtained:
[1] = molecular target: T1, GluN1/GluN2A NMDARs (Rattus norvegicus, UniProt P35439+Q00959); parameters: method as in McKay et al., 2012; settings: ref McKay et al., 2012, cited from earlier work
T1 construct: expressed in transfected cells; host or cells: Xenopus laevis oocytes injected with cRNA (GluN1:GluN2 1:1)

[2] = molecular target: T1, GluN1/GluN2A NMDARs; test: TEVC recordings of NMDAR currents from Xenopus laevis oocytes expressing GluN1/GluN2A; type: cell-based; settings: for inhibition of GluN1/GluN2A NMDAR-mediated currents: antagonist 10 μM; for inhibition at 10 µM: TCN 201 10 μM; for IC50: minimum unconstrained, read-out: IC50 (concentration giving 50% of the maximal achievable inhibition)
Method: (§1) Nomenclature of NMDA receptor subunits follows [Collingridge et al. (2009)] and [Alexander et al. (2011)]. pSP64T-based plasmid constructs containing cDNA coding for rat GluN1-1a (i.e. the splice variant that lacks exon 5, but contains exons 21 and 22), hereafter termed GluN1 and wild-type rat GluN2A receptor subunits were prepared as described by ([Chen et al., 2005]). The rat GluN2B-containing cDNA expression vector was a gift by Stephen Traynelis (Emory University, Atlanta, GA). cRNA was synthesized as runoff transcripts as previously detailed ([Chen et al., 2005], [2008]; [Erreger et al., 2007]). Fluorescence intensity in ethidium bromide-stained agarose gels was employed to confirm the fidelity and yield of synthesized cRNAs. For recombinant receptor expression, GluN1 and GluN2 cRNAs were mixed at a nominal ratio of 1:1 and diluted with nuclease-free water to 5 ng μl^−1.
(§2) Oocytes (Stage V–VI) were removed from Xenopus laevis that had been killed in accordance with current UK Home Office protocols and defolliculated by initial collagenase treatment, then manually using forceps. 23–37 nl of cRNA mix was injected into oocytes which were subsequently maintained in Barth's solution (composition in mM: NaCl 88, KCl 1, NaHCO3 2.4, MgCl2 0.82, CaCl2 0.77, Tris-Cl 15, adjusted to pH 7.35 with NaOH and supplemented with 50 IU ml^−1 penicillin, 50 μg ml^−1 streptomycin, 50 μg ml^−1 tetracycline) for 24–48 h at 19 °C to allow for receptor expression and then stored at 4 °C until required for electrophysiological measurements.
(§3) Two-electrode voltage-clamp (TEVC) recordings were made using a GeneClamp 500 amplifier (Molecular Devices, Sunnyvale, CA) at room temperature (18–21 °C) from oocytes placed in a bath that was perfused with a solution comprising (in mM): NaCl 115, KCl 2.5, HEPES 10, BaCl2 1.8, EDTA 0.01; pH 7.4 with NaOH. Note EDTA was included to chelate contaminating low nanomolar levels of Zn^2+ that potently block of GluN2A-containing NMDARs in a voltage-independent manner. […] TEVC recordings were performed at −30 or −40 mV. Currents were filtered at 10 Hz and digitized online at 100 Hz, via a Digidata 1200 A/D interface (Molecular Devices, Union City, CA, USA), using WinEDR 3.1.9 software (Strathclyde Electrophysiology Software, Strathclyde University, UK).
The concentration of TCN 201 required to inhibit 50% (IC50) of agonist-evoked responses were determined by fitting data to the equation: I=I[B]∞+((I[B]0−I[B]∞)/(1+([B]/IC50)^nH)), where I is current response, I[B]0 is predicted maximum current in the absence of antagonist, I[B]∞ is the predicted minimum current in the presence of an infinite concentration of antagonist,[B] is the concentration of the antagonist and nH represents the Hill coefficient. To obtain an overall mean IC50 value, data points were normalised to the predicted maximum, pooled and refitted with the equation, with the maximum of each curve being constrained to asymptote to 1 but with the minimum fitted as a free parameter ([Otton et al., 2011]; [Wrighton et al., 2008]). In addition we fitted data points where both the maximum and minimum were constrained (to 1 and 0, respectively). The F ratio was calculated from the following equation: F=(SSR1−SSR2)/(DF1−DF2)/SSR2/DF2, where SSR1 and SSR2 are the sum of squared residuals of the constrained and unconstrained fits respectively and DF1 and DF2 are the degrees of freedom associated with each of the two fits.

[3] = Solubility in external recording solutions; type: physicochemical; settings: external recording solutions for TEVC or whole-cell patch-clamp; from 3 mM DMSO stock
Method: Glutamate, glycine and D-serine were purchased from Sigma–Aldrich (Poole, UK). TCN 201, TCN 213, NMDA, ifenprodil, picrotoxin and tetrodotoxin were purchased from Tocris Bioscience (Bristol, UK). Stock solutions (3 mM) of TCN 201 were made by dissolving the antagonist in DMSO.

[4] = system: NMDAR-mediated currents in rat cortical neurones; test: Whole-cell NMDA-evoked currents in cultured cortical neurones; type: cell-based; settings: TCN 201 10 μM after ifenprodil, NMDA 50 μM, glycine 3 μM
[5] = molecular target: T1, GluN1/GluN2A NMDARs; test: Schild analysis of antagonism at GluN1/GluN2A NMDARs (TEVC, oocytes); type: cell-based; settings: for dose ratio (r) for shift in glycine potency: glutamate 30 μM; for Schild plot slope (free linear regression fit): 0.3, 1 and 3 μM TCN 201 data points
Method: as §1, §2, §3
TCN 201 antagonism at the GluN1/GluN2A NMDAR was examined by the Schild method ([Arunlakshana and Schild, 1959]; [Wyllie and Chen, 2007]). Dose-ratios (r) were defined as the ratio of the concentration of agonist, in the presence of a fixed concentration of antagonist, required to evoke the same response that was obtained in the absence of the antagonist. Dose-ratios from individual oocytes were determined at low agonist concentrations by constructing a partial concentration-response curve generated in the absence of antagonist and in the presence of a series of increasing antagonist concentrations. Due to the lack of sufficient perfusion lines, the dose-ratio estimate for the higher concentrations of TCN 201 (3 and 10 μM) was determined in a separate series of experiments from those carried out for the lower two concentrations (0.3 and 1 μM). Each series of two-point concentration-response curves were plotted on a log–log scale and the slope of the line used to fit the initial (antagonist-free) two-point concentration-response curve was used to fit the remaining curves. These parallel fits were used to calculate an overall mean r value for each antagonist concentration [B], which were then used to construct a Schild plot. On a log–log scale the gradient of the line used to fit such data is predicted by the Schild equation to be unity for a competitive antagonist. […] For ‘allosteric’ antagonism at equilibrium, the Schild plot deviates from unity at higher concentrations of antagonist ([Christopoulos and Kenakin, 2002]). […]

[6] = molecular target: T2, GluN1/GluN2B NMDARs (Rattus norvegicus, UniProt P35439+Q00960); test: TEVC recordings of NMDAR currents from Xenopus laevis oocytes expressing GluN1/GluN2B; type: cell-based; settings: TCN 201 10 μM, read-out: percentage inhibition of GluN1/GluN2B NMDAR-mediated currents
T2 construct: expressed in transfected cells; host or cells: Xenopus laevis oocytes injected with cRNA (GluN1:GluN2 1:1)
Method: as §1, §2
as §3, with “Currents were filtered at 10 Hz and digitized online at 100 Hz, via a Digidata 1200 A/D interface (Molecular Devices, Union City, CA, USA), using WinEDR 3.1.9 software (Strathclyde Electrophysiology Software, Strathclyde University, UK).” left out

[7] = glutamate 30 μM, D-serine 10 μM
[8] = glutamate 30 μM, D-serine 30 μM

T1 sequence (Q00959 20-1464 limits assumed, other chains not shown): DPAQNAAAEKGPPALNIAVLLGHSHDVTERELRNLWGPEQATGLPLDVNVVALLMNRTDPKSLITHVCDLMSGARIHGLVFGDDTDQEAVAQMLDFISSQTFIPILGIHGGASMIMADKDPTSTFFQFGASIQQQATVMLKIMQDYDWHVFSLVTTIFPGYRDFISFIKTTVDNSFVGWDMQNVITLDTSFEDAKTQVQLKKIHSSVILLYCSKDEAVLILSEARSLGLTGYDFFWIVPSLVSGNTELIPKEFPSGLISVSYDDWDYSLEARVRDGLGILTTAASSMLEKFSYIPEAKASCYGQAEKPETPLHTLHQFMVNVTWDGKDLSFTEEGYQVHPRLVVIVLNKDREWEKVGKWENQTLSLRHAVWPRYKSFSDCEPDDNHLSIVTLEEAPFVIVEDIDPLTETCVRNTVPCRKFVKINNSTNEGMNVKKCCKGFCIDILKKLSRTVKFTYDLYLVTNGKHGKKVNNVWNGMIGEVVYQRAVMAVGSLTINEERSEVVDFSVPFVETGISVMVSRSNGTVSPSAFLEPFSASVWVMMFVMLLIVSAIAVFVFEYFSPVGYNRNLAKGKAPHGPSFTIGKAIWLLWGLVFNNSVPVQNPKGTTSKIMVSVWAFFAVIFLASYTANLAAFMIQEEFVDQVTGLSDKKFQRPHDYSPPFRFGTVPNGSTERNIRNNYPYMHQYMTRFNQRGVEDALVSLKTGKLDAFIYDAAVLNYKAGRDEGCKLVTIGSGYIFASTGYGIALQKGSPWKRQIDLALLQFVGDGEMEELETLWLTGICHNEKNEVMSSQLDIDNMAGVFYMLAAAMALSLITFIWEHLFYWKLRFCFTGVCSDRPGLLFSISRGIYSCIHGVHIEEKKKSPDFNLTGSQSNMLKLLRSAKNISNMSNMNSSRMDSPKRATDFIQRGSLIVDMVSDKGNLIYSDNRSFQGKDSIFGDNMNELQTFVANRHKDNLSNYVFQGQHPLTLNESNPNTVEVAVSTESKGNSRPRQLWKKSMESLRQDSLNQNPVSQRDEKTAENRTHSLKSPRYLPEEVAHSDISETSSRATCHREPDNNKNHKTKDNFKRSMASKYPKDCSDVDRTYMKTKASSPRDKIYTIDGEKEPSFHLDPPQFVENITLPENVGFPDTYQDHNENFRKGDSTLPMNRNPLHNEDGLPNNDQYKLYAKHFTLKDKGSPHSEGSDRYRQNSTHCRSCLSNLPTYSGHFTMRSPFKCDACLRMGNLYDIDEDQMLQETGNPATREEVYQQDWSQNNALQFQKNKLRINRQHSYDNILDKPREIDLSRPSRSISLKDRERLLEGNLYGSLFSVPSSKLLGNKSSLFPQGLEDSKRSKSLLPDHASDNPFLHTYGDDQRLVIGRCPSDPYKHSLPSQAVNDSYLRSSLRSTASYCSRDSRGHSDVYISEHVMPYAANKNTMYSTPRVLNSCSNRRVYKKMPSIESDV
T2 sequence (Q00960 27-1482, other chains not shown): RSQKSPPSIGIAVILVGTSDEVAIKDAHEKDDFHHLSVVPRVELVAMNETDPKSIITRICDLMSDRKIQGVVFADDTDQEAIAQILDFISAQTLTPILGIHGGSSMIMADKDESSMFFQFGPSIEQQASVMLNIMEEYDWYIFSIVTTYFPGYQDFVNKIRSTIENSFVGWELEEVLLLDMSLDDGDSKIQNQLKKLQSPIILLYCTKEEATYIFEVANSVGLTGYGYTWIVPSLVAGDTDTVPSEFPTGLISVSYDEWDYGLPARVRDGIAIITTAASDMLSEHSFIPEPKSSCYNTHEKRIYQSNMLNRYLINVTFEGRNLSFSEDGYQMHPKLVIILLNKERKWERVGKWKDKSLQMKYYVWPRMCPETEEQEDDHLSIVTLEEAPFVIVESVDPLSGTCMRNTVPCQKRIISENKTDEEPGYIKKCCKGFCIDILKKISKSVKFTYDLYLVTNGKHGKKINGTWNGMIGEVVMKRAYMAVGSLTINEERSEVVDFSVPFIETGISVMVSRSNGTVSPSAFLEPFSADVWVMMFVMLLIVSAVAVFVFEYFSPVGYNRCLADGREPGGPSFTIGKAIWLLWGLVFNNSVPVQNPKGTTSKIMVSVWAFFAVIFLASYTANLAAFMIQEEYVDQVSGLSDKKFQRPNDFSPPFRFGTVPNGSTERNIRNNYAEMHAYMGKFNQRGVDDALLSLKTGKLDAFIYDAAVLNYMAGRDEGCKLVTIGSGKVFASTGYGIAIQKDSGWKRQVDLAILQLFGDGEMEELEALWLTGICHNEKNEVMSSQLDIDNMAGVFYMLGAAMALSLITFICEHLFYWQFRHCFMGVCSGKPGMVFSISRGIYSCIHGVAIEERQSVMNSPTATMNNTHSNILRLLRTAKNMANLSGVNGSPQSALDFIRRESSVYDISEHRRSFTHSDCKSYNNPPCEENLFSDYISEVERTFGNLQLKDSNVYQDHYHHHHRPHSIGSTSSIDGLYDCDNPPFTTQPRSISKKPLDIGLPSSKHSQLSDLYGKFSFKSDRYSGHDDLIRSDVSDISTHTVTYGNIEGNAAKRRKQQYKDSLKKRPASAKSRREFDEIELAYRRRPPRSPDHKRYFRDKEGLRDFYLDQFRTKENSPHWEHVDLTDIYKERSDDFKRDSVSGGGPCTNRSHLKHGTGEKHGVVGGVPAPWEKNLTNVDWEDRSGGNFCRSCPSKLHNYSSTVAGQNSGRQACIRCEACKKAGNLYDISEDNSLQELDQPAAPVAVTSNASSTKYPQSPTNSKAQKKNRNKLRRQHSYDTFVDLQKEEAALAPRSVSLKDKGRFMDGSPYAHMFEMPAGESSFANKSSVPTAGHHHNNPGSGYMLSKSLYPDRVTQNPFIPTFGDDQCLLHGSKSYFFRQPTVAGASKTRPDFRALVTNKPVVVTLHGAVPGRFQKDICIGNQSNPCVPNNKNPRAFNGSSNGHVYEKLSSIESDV

O=C(CSc1nnc(NCc2ccccc2)s1)NCC1CCCCC1 [TCN 213, N-(cyclohexylmethyl)-2-[{5-[(phenylmethyl)amino]-1,3,4-thiadiazol-2-yl}thio]acetamide]
pA2 ([1]; GluN1/GluN2A NMDARs): 5.69 | Kb ([1]; Schild analysis, agonist glycine, read-out: equilibrium constant (KB)): 2000 nM | inhibition of GluN1/GluN2A NMDAR-mediated currents ([2]; glutamate 30 μM, glycine 10 μM): 44.0 ± 2.2% | inhibition of GluN1/GluN2A NMDAR-mediated currents ([2]; glutamate 30 μM, glycine 30 μM): 17.3 ± 1.4%

O=C(NNC(=O)c1ccc(CNS(=O)(=O)c2ccc(F)c(Cl)c2)cc1)c1ccccc1 [TCN 201, 3-chloro-4-fluoro-N-[4-[[2-(phenylcarbonyl)hydrazino]carbonyl]benzyl]benzenesulphonamide]
maximum usable concentration (noticeable precipitate at higher concentrations) [3]: 10 µM | block of NMDAR-mediated current (percentage of the original current magnitude) ([4]; DIV 9–10 neurones): 5 ± 2% | block of NMDAR-mediated current (percentage of the original current magnitude) ([4]; DIV 15–18 neurones): 16 ± 3% | block of NMDAR-mediated current (percentage of the original current magnitude) ([4]; GluN2A-transfected DIV 9–10 neurones): 47 ± 4% | dose ratio (r) for shift in glycine potency ([5]; 0.3 μM TCN 201): 5.19 ± 0.4 | dose ratio (r) for shift in glycine potency ([5]; 1 μM TCN 201): 16.7 ± 2.1 | dose ratio (r) for shift in glycine potency ([5]; 3 μM TCN 201): 41.1 ± 1.5 | dose ratio (r) for shift in glycine potency ([5]; 10 μM TCN 201): 49.0 ± 2.0 | pA2 ([5]; GluN1/GluN2A NMDARs, from Schild plot intercept): 7.15 | Schild plot slope (free linear regression fit) ([5]; agonist D-serine): 0.87 | allosteric constant (α) ([5]; agonist D-serine, modified equation): 0.0106 | Kb ([5]; agonist D-serine, modified equation, all data points, read-out: allosteric KB^# (allosteric antagonist dissociation constant)): 66 nM | Kb ([5]; agonist D-serine, slope constrained to unity, first three data points, read-out: equilibrium constant (KB)): 81 nM | maximum shift in the dose ratio (= 1/α) ([5]; agonist glycine): around 80 fold | Schild plot slope (free linear regression fit) ([5]; agonist glycine): 0.98 | TCN 201 concentration needed to achieve the maximum dose-ratio shift ([5]; agonist glycine, above limit of solubility): approximately 275 μM | allosteric constant (α) ([5]; agonist glycine, modified equation): 0.0123 | Kb ([5]; agonist glycine, modified equation, all data points, read-out: allosteric KB^# (allosteric antagonist dissociation constant)): 56 nM | Kb ([5]; agonist glycine, slope constrained to unity, first three data points, read-out: equilibrium constant (KB)): 70 nM | potency relative to TCN 213 at GluN1/GluN2A NMDARs ([5]; comparison of pA2 / equilibrium constants): around 30 times | maximum shift in the dose ratio (= 1/α) ([5]; glycine or D-serine as GluN1-site agonist): 80–90 fold | inhibition at 10 µM ([2]; Fig. 2b, read-out: inhibition of glutamate/glycine-evoked GluN1/GluN2A NMDAR-mediated currents): 91.2 ± 1.1% | inhibition at 10 µM ([2]; data not shown, read-out: inhibition of NMDA/glycine-evoked GluN1/GluN2A NMDAR-mediated currents): 69.9 ± 4.1% | inhibition at 10 µM ([2]; glutamate 3 μM, glycine 30 μM, read-out: percentage inhibition of GluN1/GluN2A NMDAR-mediated currents): 54.5 ± 3.4% | inhibition at 10 µM ([2]; glutamate 10 μM, glycine 30 μM, read-out: percentage inhibition of GluN1/GluN2A NMDAR-mediated currents): 52.2 ± 3.7% | inhibition at 10 µM ([2]; glutamate 30 μM, glycine 30 μM (glutamate-dependency series), read-out: percentage inhibition of GluN1/GluN2A NMDAR-mediated currents): 45.8 ± 2.8% | inhibition of GluN1/GluN2A NMDAR-mediated currents ([2]; glutamate 30 μM, glycine 10 μM): 82.4 ± 1.1% | inhibition of GluN1/GluN2A NMDAR-mediated currents ([2]; glutamate 30 μM, glycine 30 μM): 50.7 ± 1.1% | Hill slope ([2]; glutamate 30 μM, D-serine 3 μM): 1.57 ± 0.078 | IC50 ([2]; glutamate 30 μM, D-serine 3 μM): 326 ± 18 nM | Hill slope [2, 7]: 1.33 ± 0.21 | IC50 [2, 7]: 816 ± 231 nM | Hill slope [2, 8]: 1.17 ± 0.07 | IC50 [2, 8]: 1920 ± 250 nM | Hill slope ([2]; glutamate 30 μM, glycine 3 μM): 1.42 ± 0.061 | IC50 ([2]; glutamate 30 μM, glycine 3 μM): 446 ± 26 nM | Hill slope ([2]; glutamate 30 μM, glycine 10 μM): 1.49 ± 0.21 | IC50 ([2]; glutamate 30 μM, glycine 10 μM): 746 ± 133 nM | Hill slope ([2]; glutamate 30 μM, glycine 30 μM): 1.17 ± 0.11 | IC50 ([2]; glutamate 30 μM, glycine 30 μM): 3890 ± 1060 nM | predicted maximal inhibition ([2]; saturating glycine (or D-serine), from fits with unconstrained minima): around 40% | inhibition at 10 µM ([6]; glycine 3 μM): 1.8 ± 0.6% | inhibition at 10 µM ([6]; glycine 10 μM): 3.1 ± 1% | inhibition at 10 µM ([6]; glycine 30 μM): 3.1 ± 0.8%
